According to PubChem BioAssay AID248 (DTP/NCI, 2004):
Several values for one entry are separate records, joined by “and”; a condition that tells them apart may be missing. Identical values can stand only once. Inconclusive results and toxic doses are left out. No stated cut-off is given here; in the data, active means T/C of 150% or more; inactive means T/C below 125%.

System: L1210 leukemia ip in BDF1 mice, survival T/C
Experiment: NCI In Vivo Anticancer Drug Screen. Data for tumor model L1210 Leukemia (intraperitoneal) in B6D2F1 (BDF1) mice
Settings: endpoint: mean survival time, higher = longer survival
Summary of the method: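 Each compound was tested against a transplantable tumor grown in mice. The endpoint was survival, with treated animals benchmarked against vehicle controls as a simple ratio.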

Measured: T/C

Nc1nc2nc(I)[nH]c2c(=O)[nH]1
inactive: dose: 5.0 mg/kg/injection, schedule: Q01DX001 (ip), vehicle: saline 98 % of control | dose: 10.0 mg/kg/injection, schedule: Q01DX001 (ip), vehicle: saline 102 % of control | dose: 20.0 mg/kg/injection, schedule: Q01DX001 (ip), vehicle: saline 98 % of control | dose: 40.0 mg/kg/injection, schedule: Q01DX001 (ip), vehicle: saline 103 % of control

Cc1cccc(OC(=O)Nc2cccc(Cl)c2)c1
inactive: dose: 100.0 mg/kg/injection, schedule: Q01DX009 (ip), vehicle: carboxymethylcellulose (CMC) 98 % of control and 110 % of control | dose: 100.0 mg/kg/injection, schedule: Q04DX002 (ip), vehicle: Klucel (hydroxypropylcellulose) (HPC) 95 % of control | dose: 100.0 mg/kg/injection, schedule: Q04DX002 (ip), vehicle: carboxymethylcellulose (CMC) 93 % of control and 120 % of control and 92 % of control | dose: 100.0 mg/kg/injection, schedule: Q04DX003 (ip), vehicle: carboxymethylcellulose (CMC) 103 % of control | dose: 200.0 mg/kg/injection, schedule: Q01DX009 (ip), vehicle: carboxymethylcellulose (CMC) 96 % of control and 104 % of control | dose: 200.0 mg/kg/injection, schedule: Q04DX002 (ip), vehicle: Klucel (hydroxypropylcellulose) (HPC) 92 % of control | dose: 200.0 mg/kg/injection, schedule: Q04DX002 (ip), vehicle: carboxymethylcellulose (CMC) 97 % of control and 103 % of control and 106 % of control | dose: 200.0 mg/kg/injection, schedule: Q04DX003 (ip), vehicle: carboxymethylcellulose (CMC) 110 % of control | dose: 400.0 mg/kg/injection, schedule: Q04DX002 (ip), vehicle: Klucel (hydroxypropylcellulose) (HPC) 95 % of control | dose: 400.0 mg/kg/injection, schedule: Q04DX002 (ip), vehicle: carboxymethylcellulose (CMC) 98 % of control and 100 % of control and 124 % of control | dose: 400.0 mg/kg/injection, schedule: Q04DX003 (ip), vehicle: carboxymethylcellulose (CMC) 94 % of control

CNC=O
inactive: dose: 32.0 mg/kg/injection, schedule: Q01DX015 (ip), vehicle: saline 94 % of control | dose: 42.87 mg/kg/injection, schedule: Q01DX Z (ip), vehicle: carboxymethylcellulose (CMC) 102 % of control | dose: 42.88 mg/kg/injection, schedule: Q01DX Z (ip), vehicle: carboxymethylcellulose (CMC) 107 % of control | dose: 44.12 mg/kg/injection, schedule: Q01DX Z (ip), vehicle: carboxymethylcellulose (CMC) 98 % of control | dose: 63.0 mg/kg/injection, schedule: Q01DX015 (ip), vehicle: saline 94 % of control | dose: 75.0 mg/kg/injection, schedule: Q01DX009 (ip), vehicle: saline 112 % of control | dose: 85.75 mg/kg/injection, schedule: Q01DX Z (ip), vehicle: carboxymethylcellulose (CMC) 103 % of control and 113 % of control | dose: 125.0 mg/kg/injection, schedule: Q01DX015 (ip), vehicle: saline 102 % of control | dose: 125.0 mg/kg/injection, schedule: Q01DX Z (ip), vehicle: saline 110 % of control | dose: 150.0 mg/kg/injection, schedule: Q01DX009 (ip), vehicle: saline 112 % of control | dose: 150.0 mg/kg/injection, schedule: Q01DX Z (ip), vehicle: saline 114 % of control | dose: 171.5 mg/kg/injection, schedule: Q01DX Z (ip), vehicle: carboxymethylcellulose (CMC) 110 % of control and 115 % of control | dose: 176.5 mg/kg/injection, schedule: Q01DX Z (ip), vehicle: carboxymethylcellulose (CMC) 111 % of control | dose: 225.0 mg/kg/injection, schedule: Q01DX001 (ip), vehicle: saline 101 % of control | dose: 225.0 mg/kg/injection, schedule: Q04DX003 (ip), vehicle: saline 97 % of control | dose: 250.0 mg/kg/injection, schedule: Q01DX015 (ip), vehicle: saline 110 % of control | dose: 300.0 mg/kg/injection, schedule: Q01DX009 (ip), vehicle: saline 121 % of control | dose: 343.0 mg/kg/injection, schedule: Q01DX Z (ip), vehicle: carboxymethylcellulose (CMC) 101 % of control and 118 % of control | dose: 353.0 mg/kg/injection, schedule: Q01DX Z (ip), vehicle: carboxymethylcellulose (CMC) 100 % of control | dose: 450.0 mg/kg/injection, schedule: Q01DX001 (ip), vehicle: saline 97 % of control | dose: 450.0 mg/kg/injection, schedule: Q04DX003 (ip), vehicle: saline 101 % of control | dose: 600.0 mg/kg/injection, schedule: Q01DX Z (ip), vehicle: saline 121 % of control | dose: 900.0 mg/kg/injection, schedule: Q01DX001 (ip), vehicle: saline 95 % of control | dose: 900.0 mg/kg/injection, schedule: Q04DX003 (ip), vehicle: saline 119 % of control | dose: 1000.0 mg/kg/injection, schedule: Q01DX015 (ip), vehicle: saline 105 % of control
